Key:
[1] = target: butyrylcholinesterase (BuChE, from equine serum) (Equus caballus, UniProt P81908); assay: biochemical; conditions: eqBuChE; mean ± spread
[2] = design: method as in PMID 29202406; conditions: cited from earlier work
primary cortical neurons = assay: Neuroprotection against OGD/R injury, MTT cell viability; assay type: cell-based; conditions: Rattus norvegicus, Primary cortical neuron, compound 10 μM, control 100%, OGD/R group 40.4%, read-out: Cell viability (MTT) after OGD/R
Protocol: The parental compounds Clau F and CZ-7 have remarkable neuroprotective effects. To further confirm whether the derivatives retain activity, an OGD/R model was performed in primary cortical neurons, and 3-(4,5-dimethylthiazol-2-yl)-2,5-diphenyltetrazolium bromide (MTT) assays were used to test cell viability. […]. According to the experimental results above, compound 6bd was selected as the candidate compound for the subsequent investigations.
[…]. All cell suspensions were grown in neurobasal/B27 medium with 100-U/mL penicillin and 100-μg/mL streptomycin. The cells were plated in poly-L-lysine (PLL, 0.1 mg/mL)-coated multiwell plates or chamber slides and maintained at 37 °C in a humidified atmosphere of 5% CO2 and 95% air. Seven day cultures were used for treatment. The treatment methods were similar to those used for PC12, but the concentrations of H2O2 and sodium dithionite were 100 μM and 2 mM, respectively.
Cell viability was determined by MTT assay. Cells were incubated with 5 mg/mL MTT (10 μL) at 37 °C for 4 h. The formazan crystals were dissolved, and absorbance was determined at 570 nm using a Microplate Reader (Thermo, Germany). The cell viability was expressed as a percentage of the optical density (OD) value of the control cultures.
Figure 2 Neuroprotective activity screening of 6aa–ad, 6ba–bf, 6ca–cd, and CZ-7 at 10 μM in primary cortical neurons induced by oxygen–glucose deprivation/reoxygenation (OGD/R). Neurons were exposed to […] sodium dithionite and reoxygenation. A 3-(4,5-dimethylthiazol-2-yl)-2,5-diphenyltetrazolium bromide (MTT) assay was used to test the cell viability. The absorbance of normal cells was regarded as 100%. Error bars represent the standard deviation. ### p < 0.001 vs. control; ** p < 0.05, *** p < 0.01 vs. model (means ± standard deviation, n = 6).

[3] = test system: ICR (Institute of Cancer Research) mice; conditions: oral 1 g/kg dose; cited from earlier work
AChE (from electric eel) = target: T1, AChE (from electric eel) (Electrophorus electricus, UniProt O42275); assay: biochemical; conditions: eeAChE; for IC50: mean ± spread
T1 construct: purchased Sigma-Aldrich
T1 sequence (O42275 24-633): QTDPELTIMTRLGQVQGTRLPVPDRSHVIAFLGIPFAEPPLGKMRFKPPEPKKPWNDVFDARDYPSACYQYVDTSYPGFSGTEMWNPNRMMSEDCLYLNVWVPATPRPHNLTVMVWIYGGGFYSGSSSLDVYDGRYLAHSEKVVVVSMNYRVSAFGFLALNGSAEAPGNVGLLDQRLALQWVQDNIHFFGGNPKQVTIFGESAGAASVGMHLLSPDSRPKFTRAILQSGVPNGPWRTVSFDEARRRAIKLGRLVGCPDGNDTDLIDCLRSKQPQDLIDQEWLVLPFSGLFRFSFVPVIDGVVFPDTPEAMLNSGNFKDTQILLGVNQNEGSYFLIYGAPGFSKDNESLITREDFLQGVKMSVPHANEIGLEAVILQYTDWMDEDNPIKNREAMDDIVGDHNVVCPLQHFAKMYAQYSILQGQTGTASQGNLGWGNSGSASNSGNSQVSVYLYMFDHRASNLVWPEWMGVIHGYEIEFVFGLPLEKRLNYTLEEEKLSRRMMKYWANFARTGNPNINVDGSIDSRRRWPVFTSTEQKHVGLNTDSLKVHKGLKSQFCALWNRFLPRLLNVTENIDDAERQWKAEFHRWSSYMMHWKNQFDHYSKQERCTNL

in vitro = in vitro ADME; conditions: PAMPA-BBB
Protocol: A blood–brain barrier (BBB) penetration assay in vitro is essential for anti-AD drug development. […] The compounds’ blood–brain barrier penetration was evaluated by using the parallel artificial membrane permeation assay (PAMPA) described by Di et al.. The two commercial drugs were purchased from Aladdin (China). Porcine brain lipid was obtained from Sigma (China). The donor microplate (polyvinylidene fluoride (PVDF) membrane, pore size 0.45 μm) and acceptor microplate were both from Millipore (China). The 96-well ultraviolet (UV) plate (COSTAR) was from Corning Incorporated (USA). The detailed procedure was described in [26, 27].

[4] = Singlet oxygen scavenging by ESR spectroscopy (TEMP, UVA light); assay type: physicochemical; conditions: 10^−2 mol/L compound, 5 × 10^−2 mol/L TEMP in DMSO, UVA light 1 min
Protocol: Oxidative stress caused by reactive oxygen (for example, singlet oxygen and hydroxyl radical) is related to the death of neurons and the formation of intracellular Aβ oligomer. Drugs designed to prevent the formation or removal of free radicals in the brain are beneficial for AD. The main technique for detecting organic free radicals is electron spin resonance (ESR) spectroscopy. This technology can detect radical concentrations on the order of 10 nM or less under favorable conditions and has high sensitivity. Therefore, compound 6bd was tested for its ability to scavenge active oxygen by using ESR spectroscopy. For comparison, edaravone (Eda) was used as a reference.
ESR signals were recorded with a 10 mW incident microwave and […] field modulation of 1 G. The scan width was 150 G for 2, 2, 6, 6-tetramethylpiperidine (TEMP) experiments. All measurements were performed at room temperature (RT). Briefly, 5 × 10^−2 mol/L TEMP and 10^−2 mol/L 6bd or Eda were mixed in DMSO, and ESR signals were obtained after exposure to UVA light for 1 min.

Chain of butyrylcholinesterase (BuChE, from equine serum) (P81908 whole entry): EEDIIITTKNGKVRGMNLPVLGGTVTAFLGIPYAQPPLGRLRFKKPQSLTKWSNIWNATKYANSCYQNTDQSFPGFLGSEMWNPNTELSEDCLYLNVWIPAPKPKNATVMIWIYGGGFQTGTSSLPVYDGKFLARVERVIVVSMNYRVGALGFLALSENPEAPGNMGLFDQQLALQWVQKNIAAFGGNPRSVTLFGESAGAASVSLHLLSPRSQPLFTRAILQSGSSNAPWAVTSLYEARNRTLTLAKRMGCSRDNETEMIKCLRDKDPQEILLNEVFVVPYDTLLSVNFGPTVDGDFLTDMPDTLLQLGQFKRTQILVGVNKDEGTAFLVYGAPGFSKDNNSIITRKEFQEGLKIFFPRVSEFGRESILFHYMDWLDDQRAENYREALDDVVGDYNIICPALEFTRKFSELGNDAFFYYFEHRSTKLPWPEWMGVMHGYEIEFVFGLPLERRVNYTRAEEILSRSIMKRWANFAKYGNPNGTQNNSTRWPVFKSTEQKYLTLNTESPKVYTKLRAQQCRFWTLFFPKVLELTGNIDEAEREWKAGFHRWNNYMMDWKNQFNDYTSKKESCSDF

| Structure (SMILES) | IC50 [1] [µM] | Exposure in the brain relative to plasma [2] [fold] | viability at 10 µM (primary cortical neurons) [%] | Acute toxicity finding [3] | inhibition at 100 µM (AChE (from electric eel); compound at 100 μM, read-out: AChE inhibition rate (%) in 100 μM) [%] | IC50 (AChE (from electric eel)) [µM] | Brain penetration classification (in vitro) | Papp (in vitro; means ± SD of three independent experiments, read-out: Permeability Pe, Experiment) [nm/s] | Singlet oxygen scavenging compared with edaravone (Eda) [4] |
| --- | --- | --- | --- | --- | --- | --- | --- | --- | --- |
| Cc1cc2c([nH]c3ccc(C(C)(C)C)cc32)c2c1OC(C)(C)C=C2 [CZ-7, reference compound] | 59.5 ± 5.62 | 4.3 | 113 | no toxic side effects | 32.5 ± 6.52 |  |  |  |  |
| CC1(C)C=Cc2c(c(/C=C/C(=O)NCC3CCN(Cc4ccccc4F)CC3)cc3c2[nH]c2ccc(C(C)(C)C)cc23)O1 [Compound 6bb, (E)-3-(8-(tert-Butyl)-3,3-dimethyl-3,11-dihydropyrano[3,2-a]carbazol-5-yl)-N-((1-(2-fluorobenzyl)piperidin-4-yl)methyl)acrylamide] | 5.63 ± 0.31 |  | 109 |  |  | 4.08 ± 0.12 |  |  |  |
| CC1(C)C=Cc2c(c(/C=C/C(=O)NCC3CCN(Cc4ccccc4Cl)CC3)cc3c2[nH]c2ccc(C(C)(C)C)cc23)O1 [Compound 6bd, (E)-3-(8-(tert-Butyl)-3,3-dimethyl-3,11-dihydropyrano[3,2-a]carbazol-5-yl)-N-((1-(2-chlorobenzyl)piperidin-4-yl)methyl)acrylamide] | 5.46 ± 0.61 |  | 126 |  |  | 4.34 ± 0.46 | good brain penetration | 43.8 ± 0.5 | stronger effect |
| CC1(C)C=Cc2c(c(/C=C/C(=O)NCC3CCN(Cc4cccc(Cl)c4)CC3)cc3c2[nH]c2ccc(C(C)(C)C)cc23)O1 [Compound 6be, (E)-3-(8-(tert-Butyl)-3,3-dimethyl-3,11-dihydropyrano[3,2-a]carbazol-5-yl)-N-((1-(3-chlorobenzyl)piperidin-4-yl)methyl)acrylamide] | 6.36 ± 1.21 |  | 105 |  |  | 1.69 |  |  |  |
| CC1(C)C=Cc2c(c(/C=C/C(=O)NCC3CCN(Cc4ccc(Cl)cc4)CC3)cc3c2[nH]c2ccc(C(C)(C)C)cc23)O1 [Compound 6bf, (E)-3-(8-(tert-Butyl)-3,3-dimethyl-3,11-dihydropyrano[3,2-a]carbazol-5-yl)-N-((1-(4-chlorobenzyl)piperidin-4-yl)methyl)acrylamide] | 12.1 ± 0.76 |  | 107 |  |  | 1.63 ± 0.3 |  |  |  |

Source: PMC7957565 (Molecules, 2021)
